# Data as given in patent US6703347B2, “Isothiazole derivatives and their use as pesticides” (Syngenta Limited, priority 2000, dated 2004).
# Read-outs that look alike come from different tables or passages of the source.
# Columns and labels:
# [1] = system: Puccinia recondita (PUCCRT); test: foliar fungicide test on wheat (Example 19); format: in vivo; conditions: 100 ppm foliar (Prot) application on wheat; inoculated 6 hours or one day after application
# [2] = system: two-spotted spider mites (Tetranychus urticae); conditions: liquid composition containing 500 ppm by weight of compound
# Description: (§1) The activities of individual compounds of formula (I) were determined using a variety of pests. The pests were treated with a liquid composition containing 500 parts per million (ppm) by weight of a compound of formula (I). Each composition was made by dissolving the compound in an acetone and ethanol (50:50 by volume) mixture and diluting the solution with water containing 0.05% by volume of a wetting agent, SYNPERONIC NP8, until the liquid composition contained the required concentration of the compound.
# (§2) The test procedure adopted with regard to each pest was essentially the same and comprised supporting a number of the pests on a medium, which was usually a substrate, a host plant or a foodstuff on which the pests feed, and treating either or both the medium and the pests with a composition. Pest mortality was assessed usually between two and five days after treatment.
# (§3) Similar tests were conducted against, independently, two-spotted spider mites (Tetranychus urticae), fruit flies (Drosophila melanogaster), tobacco budworms (Heliothis virescens), diamond back moth (Plutella xylostella) and corn root worm (Diabrotica balteata).
# [3] = system: Blumeria graminis f.sp. tritici (ERYSGT); test: foliar fungicide test on wheat (Example 19); format: in vivo; conditions: 100 ppm foliar (Prot) application on wheat; inoculated 6 hours or one day after application
# [4] = system: fruit flies (Drosophila melanogaster); test: pesticidal test against fruit flies; conditions: liquid composition containing 500 ppm by weight of compound
# Description: as §1, §2, §3
# [5] = system: peach potato aphids (Myzus persicae); conditions: 500 ppm by weight; infested Chinese cabbage leaves sprayed; mortality assessed after three days
# Description: (§4) This Example illustrates the pesticidal/insecticidal properties of compounds of formula (I). The activities of individual compounds of formula (I) were determined using a variety of pests. The pests were treated with a liquid composition containing 500 parts per million (ppm) by weight of a compound of formula (I). Each composition was made by dissolving the compound in an acetone and ethanol (50:50 by volume) mixture and diluting the solution with water containing 0.05% by volume of a wetting agent, SYNPERONIC NP8, until the liquid composition contained the required concentration of the compound.
# as §2
# (§5) In each test against peach potato aphids (Myzus persicae), Chinese cabbage leaves were infested with aphids, the infested leaves were sprayed with a test composition and pest mortality was assessed after three days.
# [6] = system: diamond back moth (Plutella xylostella); test: pesticidal test against diamond back moth; conditions: liquid composition containing 500 ppm by weight of compound
# Description: as §1, §2, §3
# [7] = system: corn root worm (Diabrotica balteata); test: pesticidal test against corn root worm; conditions: liquid composition containing 500 ppm by weight of compound
# [8] = system: Plasmopara viticola (PLASVI); test: foliar fungicide test on vines (Example 19); format: in vivo; conditions: 100 ppm foliar (Prot) application on vines; inoculated 6 hours or one day after application
# [9] = system: Phytophthora infestans lycopersici (PHYTIN); format: in vivo; conditions: 100 ppm foliar (Prot) application on tomatoes; inoculated 6 hours or one day after application
# [10] = system: peach potato aphids (Myzus persicae); test: whole plant or invertebrate; conditions: 72 h, read-out: mortality (score) Mp
# Description: as §4, §2, §5
# [11] = system: Venturia inaequalis (VENTIN); test: foliar fungicide test on apples (Example 18); format: in vivo; conditions: 100 ppm foliar spray on apples; inoculated one day after chemical application (Prot)
# [12] = system: Pyricularia oryzae (PYRIOR); format: in vivo; conditions: 100 ppm foliar spray on rice; inoculated one day after chemical application (Prot)
# [13] = system: Puccinia recondita (PUCCRT); test: foliar fungicide test on wheat (Example 18); format: in vivo; conditions: 100 ppm foliar spray on wheat; inoculated one day after chemical application (Prot)
# [14] = system: Uncinula necator (UNCINE); test: foliar fungicide test on vines (Example 18); format: in vivo; conditions: 100 ppm foliar spray on vines; inoculated one day before chemical application (Erad)
# [15] = system: Phytophthora infestans lycopersici (PHYTIN); format: in vivo; conditions: 100 ppm foliar spray on tomatoes; inoculated one day after chemical application (Prot)
# [16] = system: tobacco budworms (Heliothis virescens); test: pesticidal test against tobacco budworms; conditions: liquid composition containing 500 ppm by weight of compound
# Description: as §1, §2, §3
smiles,measurement,setting,value
Cc1nsc(NC(=O)C(=CO)c2ccc3oc(CC(C)(C)C)nc3c2)c1Cl [Table 12 Compound 7],"PUCCRT Prot, PRCO (Percentage Reduction from Control)",[1],97
same,mortality (score) Tu,[2],9 (9 indicates 80-100% mortality)
same,"ERYSGT Prot, PRCO (Percentage Reduction from Control)",[3],78
same,mortality (score) Dm,[4],0 (represents less than 40% mortality)
same,mortality (score) Mp,[5],0 (represents less than 40% mortality)
same,mortality (score) Px,[6],9 (9 indicates 80-100% mortality)
same,mortality (score) Db,[7],9 (9 indicates 80-100% mortality)
same,"PLASVI Prot, PRCO (Percentage Reduction from Control)",[8],100
COC=C(C(=O)Nc1snc(C)c1Cl)c1ccc2oc(CC(C)(C)C)nc2c1 [Table 13 Compound 7],mortality (score) Dm,[4],0 (represents less than 40% mortality)
same,mortality (score) Mp,[5],9 (9 indicates 80-100% mortality)
same,"PHYTIN Prot, PRCO (Percentage Reduction from Control)",[9],100
same,mortality (score) Px,[6],0 (represents less than 40% mortality)
same,"PLASVI Prot, PRCO (Percentage Reduction from Control)",[8],100
"Cc1nsc(NC(=O)C(=CN(C)C)c2ccc3oc(CC(C)(C)C)nc3c2)c1Cl [Table 14 Compound 7, N-(4-chloro-3-methylisothiazol-5-yl)-α-[(dimethylamino)methylene]-[2-(2,2-dimethylpropyl)benzoxazol-5-yl]acetamide]",mortality at 500 ppm,[10],80 to 100%
same,mortality (score) Tu,[2],9 (9 indicates 80-100% mortality)
same,"ERYSGT Prot, PRCO (Percentage Reduction from Control)",[3],83
same,"VENTIN Prot, PRCO (Percentage Reduction from Control)",[11],85
same,"PYRIOR Prot, PRCO (Percentage Reduction from Control)",[12],92
same,"PUCCRT Prot, PRCO (Percentage Reduction from Control)",[13],98
same,"UNCINE Erad, PRCO (Percentage Reduction from Control)",[14],100
same,"PHYTIN Prot, PRCO (Percentage Reduction from Control)",[15],0
Cc1nsc(NC(=O)C(CC#N)c2ccc3oc(CC(C)(C)C)nc3c2)c1Cl (centres unmarked) [Table 20 Compound 7],mortality (score) Tu,[2],9 (9 indicates 80-100% mortality)
same,mortality (score) Hv,[16],0 (represents less than 40% mortality)
same,mortality (score) Dm,[4],0 (represents less than 40% mortality)
same,mortality (score) Mp,[5],5 (5 indicates 40-79% mortality)
same,"PHYTIN Prot, PRCO (Percentage Reduction from Control)",[9],72
same,mortality (score) Px,[6],9 (9 indicates 80-100% mortality)
same,mortality (score) Db,[7],0 (represents less than 40% mortality)
same,"PLASVI Prot, PRCO (Percentage Reduction from Control)",[8],100
"CCNC=C(C(=O)Nc1snc(C)c1Cl)c1ccc2oc(CC(C)(C)C)nc2c1 [Table 15 Compound 7, N-(4-chloro-3-methylisothiazol-5-yl)-α-[(ethylamino)methylene]-[2-(2,2-dimeth-ylpropyl)benzoxazol-5-yl]acetamide]",mortality at 500 ppm,[10],80 to 100%
same,mortality (score) Tu,[2],9 (9 indicates 80-100% mortality)
same,"VENTIN Prot, PRCO (Percentage Reduction from Control)",[11],53
same,"PYRIOR Prot, PRCO (Percentage Reduction from Control)",[12],57
same,"PUCCRT Prot, PRCO (Percentage Reduction from Control)",[13],100
same,"UNCINE Erad, PRCO (Percentage Reduction from Control)",[14],100
Cc1nsc(NC(=O)Cc2ccc3oc(CC(C)(C)C)nc3c2)c1Cl,melting point,,144 to 145 °C
Cc1nsc(NC(=O)C(F)c2ccc3oc(CC(C)(C)C)nc3c2)c1Cl (centres unmarked) [Table 5 Compound 7],"PUCCRT Prot, PRCO (Percentage Reduction from Control)",[1],96
same,mortality (score) Tu,[2],9 (9 indicates 80-100% mortality)
same,"ERYSGT Prot, PRCO (Percentage Reduction from Control)",[3],100
same,mortality (score) Mp,[5],9 (9 indicates 80-100% mortality)
same,"PLASVI Prot, PRCO (Percentage Reduction from Control)",[8],98
